Numbers after ± are expanded uncertainties.
Test: Solid-liquid equilibrium temperature
Details: closed cylinder with variable piston

CCCCCCCCCCCCC [tridecane]
Crystal 1
Details	Solid-liquid equilibrium temperature [K]
100 kPa	268.21 ± 0.24
133010 kPa	293.15 ± 1
197120 kPa	303.15 ± 1.2
265400 kPa	313.15 ± 1.6
337830 kPa	323.15 ± 1.9
414420 kPa	333.15 ± 2.2
495170 kPa	343.15 ± 2.5

CCCCCCCCCCCCCCCC [hexadecane]
Crystal
Details	Solid-liquid equilibrium temperature [K]
9210 kPa	293.15 ± 0.3
50650 kPa	303.15 ± 0.58
95560 kPa	313.15 ± 0.9
143920 kPa	323.15 ± 1.2
195740 kPa	333.15 ± 1.5
251030 kPa	343.15 ± 1.9

CCCCCCCCCCCCCCCCCC [octadecane]
Crystal
Details	Solid-liquid equilibrium temperature [K]
8860 kPa	303.15 ± 0.3
49600 kPa	313.15 ± 0.57
94900 kPa	323.15 ± 0.88
144780 kPa	333.15 ± 1.2
199220 kPa	343.15 ± 1.5
258230 kPa	353.15 ± 1.8
